Assay [1] relates to MSSA strains (Mupirocin-resistant and Mupirocin-susceptible; QC ATCC 29213). The assay can be described thus: In vitro MIC/MBC assay (2-fold microdilution), S. aureus strain panel. The class given is cell-based, Staphylococcus aureus. How it is done: (§1) AB-101 was tested against an extensive variety of bacterial strains, including Mupirocin-resistant MRSA, Mupirocin-resistant MSSA, Mupirocin-susceptible MSSA, Mupirocin-susceptible MRSA, and other skin-related pathogens.
(§2) Measures included the minimum inhibitory concentration (MIC) which is the lowest concentration of AB-101 that prevents visible growth of the bacterium or pathogen, and minimum bactericidal concentration (MBC) which is the lowest concentration of an antibacterial agent required to kill a bacterium.
(§3) AB-101 Lots 01, 02 and a purified extract of taspine for MIC are compared. […] Taspine may have additional synergistic benefits to be included in the whole extract in the final product for the effective treatment of a bacterial colonization or primary or secondary bacterial infection of an underlying skin disorder.
(§4) AB-101 Lots 01, 02 and a purified extract of taspine for MBC are compared. […] Taspine may have additional synergistic benefits to be included in the whole extract in the final product for the effective treatment of bacterial colonization or primary or secondary bacterial infection of an underlying skin disorder.
(§5) Tables 26 and 27 show an assay whose setup is same as what was used for screening S. aureus and P. aeruginosa (i.e. 2-fold microdilution). The 20 strains of S. pyogenes assayed were selected from the two rounds of antibiotic screening to identify Erythromycin and Tetracycline resistant strains. […] For this feasibility study, AB-101 Lot 1 and Lot 2 was used. P. aeruginosa ATCC 27853 was tested as a positive control for AB-101 activity.

The subject of assay [2] is MRSA strains (Mupirocin-resistant and Mupirocin-susceptible). Described as above. It is filed as cell-based, Staphylococcus aureus. The conditions noted are these: for MIC: Staphylococcus aureus. As to the method:
as §1, §2, §3, §4, §5

In assay [3] the test system is cells. The conditions noted are these: Chen, Planta Med. 60 (1994), cited from earlier work; for effect on cell proliferation: compounds obtained through extraction; for healing effects: Ecuadorian sap.
Assay [4] concerns Enterococcus faecalis (ATCC 29212) (EFAECL). The assay can be described thus: Agar Well Diffusion Assay (Kirby-Bauer disks), zone of inhibition. The class given is cell-based. As to conditions: control antibiotic K-B disk. As to the method:
Isolates were subcultured the day before the Agar Well Diffusion Assay was performed. On the day of the assay, a bacterial suspension (0.08-0.12 MacFarland units) of each bacteria isolate was made in Trypticase Soy Broth (TSB), and these suspensions were used to plate a lawn of bacterial organisms on Mueller-Hinton agar or Mueller-Hinton sheep's blood agar. […] The next day, the width of the zone of growth inhibition surrounding each K-B disk was recorded (in mm). The larger the number, the greater the zone of inhibition, and the greater the inhibition of growth of the target organisms.
Therefore, all dilutions were made into DMSO and a K-B disk containing 25 uL DMSO was included in all experiments as a vehicle control.
When assessing antibiotic effects in a K-B type test, the minimum zone of inhibition for considering a positive test varies depending on the antibiotic tested with anything more than 0 mm considered positive in some cases or as much as 10 mm or more needed for others.
A general note: Agar diffusion results depend on both activity and mobility in agar.

Here are results for nine compounds from patent US12440529B2, “Topical Croton lechleri compositions and their use in the treatment of a bacterial colonization or primary or secondary bacterial infection of an underlying skin disorder” (ALPHYN BIOLOGICS, INC., priority 2020, dated 2025).

A word on the MIC: it is the lowest concentration that inhibits growth of the organism. As to `COc1cccc(OC)c1C(=O)N[C@@H]1C(=O)N2[C@@H]1SC(C)(C)[C@@H]2C(=O)O` [Methicillin], the minimal inhibitory concentration (MIC) in assay [1] (Staphylococcus aureus, strain 1674606, MupirocinR, MSSA) lay in the range of 2 to 8 µg/mL; in assay [1] (Staphylococcus aureus, strain 1674606; MupirocinR, MSSA), 2 to 8 µg/mL; in assay [1] (Staphylococcus aureus, strain 1674608, MupirocinR, MSSA), 2 to 4 µg/mL; in assay [1] (Staphylococcus aureus, strain 1674608; MupirocinR, MSSA), 2 to 4 µg/mL; in assay [1] (Staphylococcus aureus, strain ATCC 29213, QC control), 1 to 2 µg/mL; in assay [1] (Staphylococcus aureus, strain ATCC 29213; QC control), 1 to 2 µg/mL. In addition, the minimal inhibitory concentration (MIC) was 4 to 8 µg/mL in assay [1] (Staphylococcus aureus, strain CDC 461, MupirocinS, MSSA); 4 to 8 µg/mL in assay [1] (Staphylococcus aureus, strain CDC 461; MupirocinS, MSSA); 8 µg/mL in assay [1] (Staphylococcus aureus, strain CDC 462, MupirocinS, MSSA); 8 µg/mL in assay [1] (Staphylococcus aureus, strain CDC 462; MupirocinS, MSSA); 8 to 16 µg/mL in assay [1] (Staphylococcus aureus, strain CDC 463, MupirocinS, MSSA); 8 to 16 µg/mL in assay [1] (Staphylococcus aureus, strain CDC 463; MupirocinS, MSSA). Moreover, the minimal inhibitory concentration (MIC) in assay [1] (Staphylococcus aureus, strain CDC 464, MupirocinS, MSSA) was 2 µg/mL; in assay [1] (Staphylococcus aureus, strain CDC 464; MupirocinS, MSSA), 2 µg/mL; in assay [1] (Staphylococcus aureus, strain CDC 484, MupirocinS, MSSA), 2 µg/mL; in assay [1] (Staphylococcus aureus, strain CDC 484; MupirocinS, MSSA), 2 µg/mL; in assay [1] (Staphylococcus aureus, strain CDC 485, MupirocinS, MSSA), 2 to 4 µg/mL; in assay [1] (Staphylococcus aureus, strain CDC 485; MupirocinS, MSSA) it was 2 to 4 µg/mL. Also, the MIC in assay [2] (strain 1674607, MupirocinR) was greater than 64 µg/mL; in assay [2] (strain 1674611, MupirocinR), 64 µg/mL; in assay [2] (strain CDC 218, MupirocinR), greater than 64 µg/mL; in assay [2] (strain CDC 224, MupirocinR) it was greater than 64 µg/mL; in assay [2] (strain CDC 227, MupirocinS), 64 µg/mL; in assay [2] (strain CDC 228, MupirocinR) it was 64 µg/mL. Moreover, the minimal inhibitory concentration (MIC) in assay [2] (strain CDC 480, MupirocinS) was 32 to 64 µg/mL; in assay [2] (strain CDC 481, MupirocinS), 16 to 32 µg/mL; in assay [2] (strain CDC 482, MupirocinS), 8 to 32 µg/mL; in assay [2] (strain CDC 483, MupirocinS), 64 µg/mL.
Consider `Oc1cc(O)c2c(c1)O[C@H](c1cc(O)c(O)c(O)c1)[C@@H](O)C2` [gallocatechin], for which, in assay [3], the “effect on cell proliferation” value is recorded as “slightly stimulating”.
Regarding `COc1ccc2c(=O)oc3c(OC)cc(CCN(C)C)c4c(=O)oc1c2c34` [taspine], the “activity by MBC” value in assay [1] (MSSA) and in assay [2] was “does not have activity” throughout. In addition, the “activity by MIC” value in assay [1] (MSSA; highest taspine concentration tested 10 μg/mL (50% relative to AB-101)) and in assay [2] (highest taspine concentration tested 10 μg/mL (50% relative to AB-101)) was “does not have activity” each time. The healing effects entry in assay [3] is reported as “little healing effects”.
For epicatechin, in assay [3], the “effect on cell proliferation” value is “little effect”.
Consider Gentamicin [GM], for which the “Zone of Inhibition” value in assay [4] is given as “GM 5 MM”.
As for `CC1(C)S[C@@H]2[C@H](NC(=O)[C@H](N)c3ccccc3)C(=O)N2[C@H]1C(=O)O` [AMP, Ampicillin], in assay [4], the “Zone of Inhibition” value is listed as “AMP 8 MM”.
Regarding `Oc1cc(O)c2c(c1)O[C@H](c1ccc(O)c(O)c1)[C@@H](O)C2` [Catechin, catechin], the “effect on cell proliferation” value in assay [3] is on record as “little effect”.
As to `COc1ccc([C@H]2Oc3c(OC)cc(CCCO)cc3[C@@H]2CO)cc1OC` [dimethylcedrusin], in assay [3], the healing effects result is “little healing effects”.
Consider epigallocatechin [epigalocatechin], for which the “effect on cell proliferation” value in assay [3] was “slightly stimulating”.
